Source: patent US6979675B2, “Treatment of cancer with 2-deoxyglucose” (Threshold Pharmaceuticals, Inc., priority 2003, dated 2005)
Read-outs that look alike come from different tables or passages of the source.

Tests used:
MV522 cells = test: Sulforhodamine B (SRB) growth inhibition assay; assay type: cell-based; settings: Homo sapiens, 72 hours treatment
Description: (§1) The human lung tumor cell lines were MV522 and NCI-H23, both of which were derived from tumors displaying histopathology of adenocarcinoma, one of the at least three types of NSCLC. The NCI-H23 tumor cell line is available from the ATCC (Rockville, Md.), and the MV522 cell line was obtained by Dr. M. J. Kelner of the University of California. The cells were cultured in RPMI medium (Nova Tech, Grand Island, N.Y.) at 37° C. in a humidified atmosphere containing 5% CO2. For passaging, cells grown in 75 cm^2 flasks (60–70% confluency) were washed with PBS and dislodged from the flasks with trypsin (Gibco BRL) before being passaged. Cells used for the experiments described below were centrifuged and resuspended in cell culture medium at a concentration of 10^5 cells/mL. A 100 microliter aliquot (ten thousand cells) was plated into each well of a 96-well microtiter plate.
(§2) Docetaxel (Taxotere™, Aventis Pharmaceuticals, Inc.) solubilized in 100% DMSO and diluted 1000×to the desired concentration (0.1% DMSO final concentration), was used as a positive control. […] Exponentially growing cells in 100 microliters of cell culture medium were plated on Day 0 in 96-well microtiter plates at a concentration of 10^4 cells/well. On Day 1, drugs were added to each well of the microtiter plate with the designated concentration in 100 microliter aliquots of cell culture medium and incubated at 37° C. in a humidified incubator (5% CO2/95% HEPA filtered air). After three days of treatment, adherent cells were fixed by adding 50 microliters of cold 50% trichloracetic acid to each well and incubating for one hour at 4° C. The supernatant was discarded, and plates were washed twice with de-ionized water and air-dried. One hundred microliters of SRB solution were added to each well of the plate and incubated ten minutes at room temperature. Unbound SRB stain was removed by washing twice with 1% acetic acid. The bound SRB stain was solubilized with 10 mM Tris buffer, and the optical densities read at a single wavelength of 515 nm.
(§3) IC50 values (50% effective dose) were calculated from two different experiments, each of which involved 6 replicates for each dose tested. […]

NCI-H23 cells = test: Sulforhodamine B (SRB) growth inhibition assay; assay type: cell-based; settings: Homo sapiens, 72 hours treatment
Description: as §1, §2, §3

[1] = test system: MiaPaCa-2 pancreatic carcinoma; test: MTS growth inhibition assay, single agent studies; assay type: cell-based; settings: Homo sapiens, MIA PaCa-2, 72 h, 3 days in culture
Description: (§4) Human tumor cell lines MiaPaCa-2 pancreatic carcinoma (mutant ras, gemcitabine sensitive) and HT-29 colon carcinoma (polyposis type, mutant p53 and APC, chemosensitive) were purchased from the ATCC (Rockville, Md.). […] Cells grown to 70% confluency were trypsinized and resuspended into cell culture medium at a concentration of 10^5 cells/ml. On Day 0 of the experiment, a […] aliquot of tumor cells was plated into internal wells of a 96-well microtiter plate at an appropriate density (in the range of 2×10^3 to 10^4 cells/well). The cells were incubated for 24 hours to allow maximum adhesion prior to exposure with test agents. […] The starting concentration and the test range of 5-FU were determined empirically for each cell line. Treatment with 5-FU started on Day 1. There were 6 replicates for each dose determination. Both drugs were added once without the medium change. After 3 days in culture, the number of proliferating cells was measured by the MTS assay described below. The test was repeated twice to quantify growth inhibitory activity. […] IC50 values were generated from two separate experiments. […] The MTS reagent is a tetrazolium compound and an electron coupling reagent. The MTS tetrazolium compound is bioreduced by cells into a colored formazan product soluble in cell culture medium. The conversion is catalyzed by NADPH or NADH produced by dehydrogenase enzymes in metabolically active cells. The MTS assay is a colorimetic assay based upon the ability of viable cells to convert […] to formazan; the quantity of formazan product, as measured by the 490 nm absorbance, is directly proportional to the number of viable cells in culture. An automated procedure determines the IC50 value. Exponentially growing cells in […] of cell culture medium are plated on Day 0 in 96-well microtiter plates at a concentration of 10^4 cells/well. […] At the end of the designated time period, 100 microL of growth medium is removed. […] Absorbance is documented on a Dynex HD microplate reader at a wavelength of 490 nm. The data was calculated as percent growth inhibition, wherein 0% represents the mean value in wells to which only vehicle (cell culture medium) was added. The % Growth Inhibition was calculated as follows: % Growth Inhibition=(1−(ODtest/ODvehicle)×100, where ODtest is the optical density of the tested sample, and ODvehicle is the optical density of the vehicle in which each respective drug is dissolved. […] To determine the interaction, there must be a significant difference that exists between the combination absorbance values and both endpoint values. For example, if the values are statistically (p<0.05) above or below the absorbance values of either agent tested alone, then antagonism or synergy is described. […]

HT-29 colon carcinoma = test: MTS growth inhibition assay, single agent studies; assay type: cell-based; settings: Homo sapiens, HT-29, 72 h, 3 days in culture
Description: as §4

[2] = dog, in vivo
[3] = test system: MV522 human tumor carcinomas; test: Tumor growth delay study in mouse MV522 xenograft model (TH-PT-001)
Description: Female nude mice (nu/nu) between 5 and 6 weeks of age and weighing approximately 20 g were obtained from Harlan, Inc. (Madison, Wis.). Animals were implanted subcutaneously by trocar with fragments of Mv522 human tumor carcinomas harvested from subcutaneously growing tumors in nude mice hosts. When the tumors were approximately 71 mg in size (11 days following inoculation), the animals were pair-matched into treatment and control groups. Each group contained 10 tumored mice. Each mouse was ear-tagged and followed individually throughout the experiment. Initial doses were given on Day 1 following pair-matching. […] Sterile water was administered orally bid×5 to end to serve as the negative control. Mice were weighed twice weekly, and tumor measurements were obtained using calipers twice weekly, starting on Day 1. These tumor measurements were converted to mg tumor weight by the standard formula (W^2×L)/2. Each mouse was sacrificed when its tumor weight reached 1000 mg. In this test, the average day of sacrifice was determined for all groups and the tumor growth delay (TGD) for each treatment group, compared to the control group, was calculated.
All of these studies are outlined in the following table.

MV522 xenograft = test: 2-DG/Paclitaxel dosing study in mouse MV522 xenograft model; assay type: in vivo
Description: The mouse MV522 xenograft model substantially as described in Example 2 was used to compare the effects of dosing 2-DG orally (in water) either at a single dose of 4 g/kg or in multiple doses (twice a day at 2 g/kg) in various combinations with paclitaxel dosed i.p. as a single dose (30 mg/kg) or in multiple doses (once daily at 10 mg/kg).

[4] = for deaths: bid×5
Description: (§5) The maximum tolerated dose determination for this study was conducted using female nude mice (nu/nu) between 5 and 6 weeks of age weighing approximately 20 g (Harlan, Inc., Madison, Wis.). Dosing began on Day 1. […] A 20 mL/kg dose volume was used to achieve doses of 2000, 4000, 6000, 8000, and 9000 mg/kg/dose. Individual mouse weights in grams were recorded twice weekly throughout the study. The average weight per group was calculated, and weight gain or loss was determined by comparing the current Day's average to the Day 1 average for that same group. The study was terminated on Day 21.

[5] = test system: human non-small cell lung cancer (NSCLC) tumor cell lines; test: Proliferation with simultaneous 2-DG and Taxol treatment; assay type: cell-based
[6] = rat, in vivo
[7] = MTD study of combined 2-DG/cisplatin treatment versus cisplatin alone (TH-PT-002); settings: cisplatin 2, 3, or 4 mg/kg/dose i.p. qd Days 6–10 with or without 2-DG 2000 mg/kg/dose oral qd days 1–10
Description: as §5, with “A 20 mL/kg dose volume was used to achieve doses of 2000, 4000, 6000, 8000, and 9000 mg/kg/dose.” left out

[8] = test system: H460, H23, H522 and H661 cells; test: Inhibition of proliferation of NSCLC tumor cell lines; assay type: cell-based; settings: most human NSCLC tumor cell lines
[9] = test system: MV522 non-small cell lung cancer (NSCLC) xenograft; test: Third efficacy study, paclitaxel alone or with oral 2-DG, tumor growth delay (TH-PT-003); assay type: in vivo, nude mice; settings: paclitaxel alone 10 mg/kg/dose i.p. days 6–10
Description: An increase in efficacy was defined as a significant (P<0.05) increase in the time for the tumor to grow to 1000 mg (tumor growth delay—TGD) compared to vehicle alone or, for combination treatment groups, chemotherapy alone, as calculated using a two-tailed t-test. Female nude mice, ten per treatment arm, were implanted subcutaneously (s.c.) with trocar fragments of MV522 tumors harvested from s.c. tumors growing in nude mice hosts. Body weights and tumor measurements were taken biweekly. When tumors reached ˜70 mg, treatment was started. Mice were sacrificed when their individual tumor reached ˜1000 mg. All doses are reported as mg/kg/dose. […] The mice were then dosed i.p. with 10 mg/kg/dose paclitaxel once a day on days 6–10. […] Dosing with paclitaxel began when the tumors were approximately 200 mg.

H2347 cells = test: Inhibition of proliferation of Taxol-resistant cell line; assay type: cell-based; settings: Homo sapiens, NCI-H2347

With O=CC[C@@H](O)[C@H](O)[C@H](O)CO [2-DG, 2-deoxy-D-glucose] the IC50 (MV522 cells) was 3740 ± 740 µM, the IC50 (NCI-H23 cells) was 1860 ± 532 µM and the IC50 ([1]; 11 mM glucose medium) was 2620 µM. The IC50 (HT-29 colon carcinoma; 11 mM glucose medium) was 9830 µM, the “visible signs of toxicity, multiple dose (5-day)” value [2] was “no visible signs of toxicity” and the “tolerability, single oral doses” value ([2]; po) was “well tolerated”. The “toxicity, single oral dose” value ([2]; po, 1 h) was “emesis at 1 hour but no other visible toxicity”, the tumor growth rate ([3]; 2-DG single agent 0–2000 mg/kg/dose, twice a day) was “did not slow the tumor growth rate” and the “mean day of sacrifice” value ([3]; 2-DG single agent 750 mg/kg p.o. bid×5 to end) was 28.9+/−3.7. The “mean day of sacrifice” value ([3]; 2-DG single agent 1000 mg/kg p.o. (Days 1–14 dose 50 mg/kg) bid×5 to end) was 27.2+/−2.7, the “mean day of sacrifice” value ([3]; 2-DG single agent 1500 mg/kg p.o. (Days 1–14 dose 150 mg/kg) bid×5 to end) was 28.2+/−4.6 and the “mean day of sacrifice” value ([3]; 2-DG single agent 2000 mg/kg p.o. (Days 1–14 dose 400 mg/kg) bid×5 to end) was 29.4+/−3.1. The toxic deaths ([3]; 2-DG single agent groups) was “no toxic deaths”, the weight loss ([3]; mouse, in vivo) was “little weight loss” and the tumor growth (MV522 xenograft; 2-DG alone, oral, 10 days of dosing more effective than 5) was “small delay in tumor growth”. The deaths ([4]; 6000 mg/kg/dose group) was “One mouse died”, the deaths ([4]; 8000 and 9000 mg/kg/dose groups) was “All 5 mice died” and the “maximum tolerated dose (MTD)” value ([4]; mouse, in vivo) was 4000 mg/kg/dose. For the same compound, the effect on proliferation ([5]; 1 mM 2-DG by itself) was “no effect on proliferation by itself”, the “visible signs of toxicity, multiple dose (5-day)” value [6] was “no visible signs of toxicity” and the “toxicity, single oral dose” value ([6]; po) was “non-toxic”.
O=c1[nH]cc(F)c(=O)[nH]1 [5-FU, 5-fluoro-2,4(1H,3H)-pyrimidinedione, reference compound] showed an IC50 [1] of 2.58 µg/mL and an IC50 (HT-29 colon carcinoma) of 1.9 µg/mL.
For CC(=O)O[C@@]12CO[C@@H]1C[C@H](O)[C@@]1(C)C(=O)[C@H](O)C3=C(C)[C@@H](OC(=O)[C@H](O)[C@@H](NC(=O)OC(C)(C)C)c4ccccc4)C[C@@](O)([C@@H](OC(=O)c4ccccc4)[C@H]21)C3(C)C [Docetaxel, reference compound], the IC50 (MV522 cells) was 0.00211 ± 0.000601 µM and the IC50 (NCI-H23 cells) was 0.00164 ± 0.000211 µM.
In the case of N.N.[Cl][Pt][Cl] [cisplatin, cis-Diaminedichloroplatinum (II)], the “deaths during the 21 days of the study” value [7] is reported as “No mice died”, the “TGD (tumor growth delay)” value ([3]; cisplatin 1 mg/kg i.p. Days 1–5) is reported as 15.8 days and the “TGD (tumor growth delay)” value ([3]; cisplatin 2 mg/kg i.p. Days 1–5) is reported as 32.6 days. The “mean day of sacrifice” value ([3]; cisplatin single agent 1 mg/kg i.p. Days 1–5) was 42.3+/−0.9, the “mean day of sacrifice” value ([3]; cisplatin single agent 2 mg/kg i.p. Days 1–5) was 59.1+/−5.7 and the complete regressions ([3]; high dose cisplatin group (2 mg/kg), 10 mice) was “Two mice”.
For CC(=O)O[C@H]1C(=O)[C@@]2(C)[C@H]([C@H](OC(=O)c3ccccc3)[C@]3(O)C[C@H](OC(=O)[C@H](O)[C@@H](NC(=O)c4ccccc4)c4ccccc4)C(C)=C1C3(C)C)[C@]1(OC(C)=O)CO[C@@H]1C[C@@H]2O [paclitaxel], the IC50 [8] was 0.05 to 0.2 µM, the deaths [9] was “One death per group” and the toxic deaths ([3]; paclitaxel 16 mg/kg i.p. Days 1–5) was “no toxic deaths”. The complete regression ([3]; paclitaxel 16 mg/kg i.p. Days 1–5, 10 mice) was “one mouse experiencing a complete regression”, the “mean day of sacrifice” value ([3]; paclitaxel 16 mg/kg i.p. Days 1–5, sacrifice at tumor weight 1000 mg) was 56.8+/−4.3 and the “TGD (tumor growth delay)” value ([3]; paclitaxel 16 mg/kg i.p. Days 1–5, vs negative control) was 34.4 days. For the same compound, the “efficacy of single dose 30 mg/kg versus 5 doses at 10 mg/kg” value (MV522 xenograft; paclitaxel i.p.) was “more effective”, the inhibition of proliferation ([5]; 200 nM Taxol alone, one test) was roughly 20% and the IC50 (H2347 cells) was greater than 1 µM.
